Measurements reported in PMC12635268, “Novel antimicrobial peptides and peptide-microbiome crosstalk in Appalachian salamander skin” (NPJ Biofilms and Microbiomes, 2025).
Like-named read-outs stand apart in the source and are kept apart here.

Legend:
Experiment in all cases: microbe, parasite or virus in culture
P. aeruginosa PA01 (Si) = format: cell-based; details: P. aeruginosa PA01 (Si), not typical ESKAPEE strain
Description: Supplement 41522_2025_837_MOESM13_ESM.xlsx, sheet "Table_S13_ESKAPEE-MIC" | column: Bacterial MIC (µg/mL)

P. aeruginosa PA01 = format: cell-based; details: Pseudomonas aeruginosa
Summary of the method: (§1)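 Each strain was exposed in duplicate to two-fold peptide dilutions (0.25 to 128 μg/mL) in cation-adjusted Mueller-Hinton broth at 1 × 10⁵ CFU/mL. After 20 h at 37 °C without shaking, the lowest concentration lacking visible growth was recorded following CLSI.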

E. coli ATCC 35218 = details: for Bacterial MIC: E. coli 35218; for MIC: Escherichia coli
Summary of the method: as §1

E. faecium ATCC 19434 = details: Enterococcus faecium
Summary of the method: as §1

[1] = tested on: K. pneumoniae ATCC 700603; details: Klebsiella pneumoniae
Summary of the method: as §1

E. faecium ATCC 49224 = details: Enterococcus faecium
Summary of the method: as §1

S. aureus ATCC 25923 = details: for Bacterial MIC: S. aureus 25923; for MIC: Staphylococcus aureus
Summary of the method: as §1

K. pneumoniae ATCC 13883 = details: Klebsiella pneumoniae
Summary of the method: as §1

P. aeruginosa ATCC 27853 = details: Pseudomonas aeruginosa
Summary of the method: as §1

P. aeruginosa MRSN 5519 = details: Pseudomonas aeruginosa
Summary of the method: as §1

S. aureus ATCC 43300 = details: for Bacterial MIC: S. aureus 43300; for MIC: Staphylococcus aureus
Summary of the method: as §1

A. baumannii ATCC 19606 = details: Acinetobacter baumannii
Summary of the method: as §1

C[C@H]1COc2c(N3CCN(C)CC3)c(F)cc3c(=O)c(C(=O)O)cn1c23 [Levofloxacin, reference compound]
1 µg/mL: MIC (E. faecium ATCC 49224; ATCC49224, read-out: Bacterial MIC, E. faecium 49224, Historical run 15NOV23) | MIC (E. faecium ATCC 49224; ATCC49224, read-out: Bacterial MIC, E. faecium 49224, Historical run 22NOV23) | MIC (P. aeruginosa ATCC 27853; ATCC27853, read-out: Bacterial MIC, P. aeruginosa 27853, Historical run 15NOV23) | MIC (P. aeruginosa ATCC 27853; ATCC27853, read-out: Bacterial MIC, P. aeruginosa 27853, Historical run 19APRIL23)
0.5 to 1 µg/mL: MIC ([1]; ATCC700603, read-out: Bacterial MIC, K. pneumoniae 700603, Historical run 19APRIL23)
0.5 µg/mL: MIC (P. aeruginosa PA01; PAO1, P. aeruginosa 15692 (PAO1), Historical run 15NOV23, read-out: Bacterial MIC) | MIC (P. aeruginosa PA01; PAO1, P. aeruginosa 15692 (PAO1), Historical run 19APRIL23, read-out: Bacterial MIC) | MIC ([1]; ATCC700603, 20 h, K. pneumoniae 700603, CAMHB, 1 × 10⁵ CFU/mL, 0.25 to 128 μg/mL, 37 °C 20 h, duplicate, read visually (CLSI)) | MIC ([1]; ATCC700603, read-out: Bacterial MIC, K. pneumoniae 700603, Historical run 15NOV23) | MIC ([1]; ATCC700603, read-out: Bacterial MIC, K. pneumoniae 700603, Week 1 (12/6/2023)) | MIC ([1]; ATCC700603, read-out: Bacterial MIC, K. pneumoniae 700603, Week 2 (12/14/2023)) | MIC (P. aeruginosa ATCC 27853; ATCC27853, 20 h, P. aeruginosa 27853, CAMHB, 1 × 10⁵ CFU/mL, 0.25 to 128 μg/mL, 37 °C 20 h, duplicate, read visually (CLSI)) | MIC (P. aeruginosa ATCC 27853; ATCC27853, read-out: Bacterial MIC, P. aeruginosa 27853, Historical run 22NOV23) | MIC (P. aeruginosa ATCC 27853; ATCC27853, read-out: Bacterial MIC, P. aeruginosa 27853, Week 1 (12/6/2023)) | MIC (P. aeruginosa ATCC 27853; ATCC27853, read-out: Bacterial MIC, P. aeruginosa 27853, Week 2 (12/14/2023)) | MIC (A. baumannii ATCC 19606; ATCC19606, read-out: Bacterial MIC, A. baumannii 19606, Historical run 15NOV23) | MIC (A. baumannii ATCC 19606; ATCC19606, read-out: Bacterial MIC, A. baumannii 19606, Historical run 19APRIL23)
64 µg/mL: MIC (P. aeruginosa MRSN 5519; MRSN5519, read-out: Bacterial MIC, P. aeruginosa 5519, Historical run 15NOV23) | MIC (P. aeruginosa MRSN 5519; MRSN5519, read-out: Bacterial MIC, P. aeruginosa 5519, Historical run 19APRIL23)
2 µg/mL: MIC (E. faecium ATCC 19434; ATCC19434, read-out: Bacterial MIC, E. faecium 19434, Historical run 22NOV23) | MIC (E. faecium ATCC 49224; ATCC49224, 20 h, E. faecium 49224, CAMHB, 1 × 10⁵ CFU/mL, 0.25 to 128 μg/mL, 37 °C 20 h, duplicate, read visually (CLSI)) | MIC (E. faecium ATCC 49224; ATCC49224, read-out: Bacterial MIC, E. faecium 49224, Historical run 19APRIL23) | MIC (E. faecium ATCC 49224; ATCC49224, read-out: Bacterial MIC, E. faecium 49224, Week 1 (12/6/2023)) | MIC (E. faecium ATCC 49224; ATCC49224, read-out: Bacterial MIC, E. faecium 49224, Week 2 (12/14/2023))
≤ 0.25 µg/mL: MIC (P. aeruginosa PA01; PAO1, P. aeruginosa 15692 (PAO1), Historical run 22NOV23, read-out: Bacterial MIC) | MIC (P. aeruginosa PA01; PAO1, P. aeruginosa 15692 (PAO1), Week 2 (12/14/2023), read-out: Bacterial MIC) | MIC (E. coli ATCC 35218; ATCC35218, read-out: Bacterial MIC) | MIC ([1]; ATCC700603, read-out: Bacterial MIC, K. pneumoniae 700603, Historical run 22NOV23) | MIC (S. aureus ATCC 25923; ATCC25923, read-out: Bacterial MIC) | MIC (K. pneumoniae ATCC 13883; ATCC13883, read-out: Bacterial MIC, K. pneumoniae 13883, Historical run 15NOV23) | MIC (K. pneumoniae ATCC 13883; ATCC13883, read-out: Bacterial MIC, K. pneumoniae 13883, Historical run 22NOV23) | MIC (K. pneumoniae ATCC 13883; ATCC13883, read-out: Bacterial MIC, K. pneumoniae 13883, Week 1 (12/6/2023)) | MIC (K. pneumoniae ATCC 13883; ATCC13883, read-out: Bacterial MIC, K. pneumoniae 13883, Week 2 (12/14/2023)) | MIC (S. aureus ATCC 43300; ATCC43300, read-out: Bacterial MIC) | MIC (A. baumannii ATCC 19606; ATCC19606, read-out: Bacterial MIC, A. baumannii 19606, Historical run 22NOV23) | MIC (A. baumannii ATCC 19606; ATCC19606, read-out: Bacterial MIC, A. baumannii 19606, Week 1 (12/6/2023)) | MIC (A. baumannii ATCC 19606; ATCC19606, read-out: Bacterial MIC, A. baumannii 19606, Week 2 (12/14/2023))
4 to 8 µg/mL: MIC (E. faecium ATCC 19434; ATCC19434, read-out: Bacterial MIC, E. faecium 19434, Week 2 (12/14/2023))
4 µg/mL: MIC (E. faecium ATCC 19434; ATCC19434, 20 h, E. faecium 19434, CAMHB, 1 × 10⁵ CFU/mL, 0.25 to 128 μg/mL, 37 °C 20 h, duplicate, read visually (CLSI)) | MIC (E. faecium ATCC 19434; ATCC19434, read-out: Bacterial MIC, E. faecium 19434, Historical run 15NOV23) | MIC (E. faecium ATCC 19434; ATCC19434, read-out: Bacterial MIC, E. faecium 19434, Historical run 19APRIL23) | MIC (E. faecium ATCC 19434; ATCC19434, read-out: Bacterial MIC, E. faecium 19434, Week 1 (12/6/2023))
0.25 to 0.5 µg/mL: MIC (K. pneumoniae ATCC 13883; ATCC13883, read-out: Bacterial MIC, K. pneumoniae 13883, Historical run 19APRIL23)
<= 0.250 µg/mL: Bacterial MIC (E. coli ATCC 35218; Historical run 15NOV23) | Bacterial MIC (E. coli ATCC 35218; Historical run 19APRIL23) | Bacterial MIC (E. coli ATCC 35218; Historical run 22NOV23) | Bacterial MIC (E. coli ATCC 35218; Week 2 (12/14/2023)) | Bacterial MIC (S. aureus ATCC 25923; Historical run 15NOV23) | Bacterial MIC (S. aureus ATCC 25923; Historical run 19APRIL23) | Bacterial MIC (S. aureus ATCC 25923; Historical run 22NOV23) | Bacterial MIC (S. aureus ATCC 25923; Week 2 (12/14/2023)) | Bacterial MIC (S. aureus ATCC 43300; Historical run 15NOV23) | Bacterial MIC (S. aureus ATCC 43300; Historical run 19APRIL23) | Bacterial MIC (S. aureus ATCC 43300; Historical run 22NOV23) | Bacterial MIC (S. aureus ATCC 43300; Week 2 (12/14/2023))
0.25 µg/mL: MIC (E. coli ATCC 35218; ATCC35218, 20 h) | MIC (S. aureus ATCC 25923; ATCC25923, 20 h) | MIC (K. pneumoniae ATCC 13883; ATCC13883, 20 h, K. pneumoniae 13883, CAMHB, 1 × 10⁵ CFU/mL, 0.25 to 128 μg/mL, 37 °C 20 h, duplicate, read visually (CLSI)) | MIC (S. aureus ATCC 43300; ATCC43300, 20 h) | MIC (A. baumannii ATCC 19606; ATCC19606, 20 h, A. baumannii 19606, CAMHB, 1 × 10⁵ CFU/mL, 0.25 to 128 μg/mL, 37 °C 20 h, duplicate, read visually (CLSI))
32 µg/mL: MIC (P. aeruginosa MRSN 5519; MRSN5519, 20 h, P. aeruginosa 5519, CAMHB, 1 × 10⁵ CFU/mL, 0.25 to 128 μg/mL, 37 °C 20 h, duplicate, read visually (CLSI)) | MIC (P. aeruginosa MRSN 5519; MRSN5519, read-out: Bacterial MIC, P. aeruginosa 5519, Historical run 22NOV23) | MIC (P. aeruginosa MRSN 5519; MRSN5519, read-out: Bacterial MIC, P. aeruginosa 5519, Week 1 (12/6/2023)) | MIC (P. aeruginosa MRSN 5519; MRSN5519, read-out: Bacterial MIC, P. aeruginosa 5519, Week 2 (12/14/2023))
8 µg/mL: Bacterial MIC (P. aeruginosa PA01 (Si); Week 2 (12/14/2023)) | MIC (P. aeruginosa PA01 (Si); Pseudomonas aeruginosa, Week 1 (12/6/2023), read-out: Bacterial MIC) | MIC (P. aeruginosa PA01; PA01, 20 h, P. aeruginosa PA01, CAMHB, 1 × 10⁵ CFU/mL, 0.25 to 128 μg/mL, 37 °C 20 h, duplicate, read visually (CLSI), read-out: MIC)
